From patent US12325677B2, “Carboxylic acid-type lipid, and lipid particle and lipid membrane each comprising carboxylic acid-type lipid” (Toray Industries, Inc., priority 2018, dated 2025) come the findings set out here.

Series [1] in a line: Thickness of lipid membrane from SEM observation image. The class given is physicochemical. The conditions noted are these: lipid supported on fiber sheet base (hemostatic materials E1 to E4), SEM ×5,000. The procedure:
The thickness of the lipid membrane is preferably 10 to 1,000 nm, more preferably 30 to 500 nm, and still more preferably 60 to 240 nm. The method of measuring the lipid membrane is as follows. The lipid membrane is observed with a scanning electron microscope (SEM). The thickness of five points optionally selected in the SEM observation image is measured, and the mean is regarded as the thickness of the lipid membrane.
An SEM observation image (×1,000) of the base complex before supporting a lipid is shown in FIG. 5, and SEM observation images (×1,000) of the hemostatic materials E1 to E4 are shown in FIGS. 6 to 9, respectively.

The subject of a further series is guinea pig-derived PRP. The series can be described thus: Evaluation of platelet aggregation capacity of hemostatic material (in vitro), protein assay of attached platelets. As to conditions: lipid supported on the base part in place of DHSG, Asp-DHSG, Glu-DHSG and AG-DHSG. The class given is cell-based. The procedure:
From the hemostatic materials D1, D2, D3 and D4, a base part (fiber sheet part) supporting DHSG, Asp-DHSG, Glu-DHSG and AG-DHSG, respectively, was taken out. To a 12-well plate, the base part (fiber sheet part) that was taken out and 1 mL of guinea pig-derived PRP (2.0×10^5/μL) prepared by the abovementioned method were added. Thereafter, ADP ([…], 100 μL) that activates platelets was added, and after allowing to stand at room temperature for 5 minutes, the mixture was washed with 1 mL of DPBS twice. Thereafter, to dissolve platelets attached to the base part (fiber sheet part), 500 μL of 0.5% Triton X was added, followed by allowing to stand at room temperature for 1 hour to obtain a platelet lysate. To a 96-well plate, […] of the platelet lysate prepared by the abovementioned method and 150 μL of PIERCE (trademark) 660 nm Protein Assay Kit were added, followed by allowing to stand for 5 minutes. By measuring absorbance at 660 nm using a microplate reader, proteins were quantitatively determined, and the determination results were used as an index of the count of platelets which were not washed away and were attached to the fiber sheet. The results in FIG. 4 are relative values when the platelet count in using the hemostatic material D1 is regarded as 1. […]

As for `CCCCCCCCCCCCCCCCOC(=O)CCC(NC(=O)CCC(=O)NC(CC(=O)O)C(=O)O)C(=O)OCCCCCCCCCCCCCCCC` (centres unmarked) [Asp-DHSG], the “Thickness of the lipid membrane” value in series [1] came out at 153 nm.

As for `CCCCCCCCCCCCCCCCOC(=O)CCC(NC(=O)CCC(=O)O)C(=O)OCCCCCCCCCCCCCCCC` [DHSG, 1,5-Dihexadecyl-N-Succinyl-L-Glutamate, reference compound], the “Thickness of the lipid membrane” value in series [1] came out at 131 nm.

Turning to `CCCCCCCCCCCCCCCCOC(=O)CCC(NC(=O)CCC(=O)NC(CCC(=O)NC(CC(=O)O)C(=O)O)C(=O)NC(CC(=O)O)C(=O)O)C(=O)OCCCCCCCCCCCCCCCC` (centres unmarked) [AG-DHSG], the “Thickness of the lipid membrane” value in series [1] was found to be 124 nm.

With `CCCCCCCCCCCCCCCCOC(=O)CCC(NC(=O)CCC(=O)NC(CCC(=O)O)C(=O)O)C(=O)OCCCCCCCCCCCCCCCC` (centres unmarked) [Glu-DHSG], the “Thickness of the lipid membrane” value in series [1] is 187 nm.

As for `CCCCCCCCCCCCCCCC(=O)OC[C@H](COP(=O)([O-])OCC[N+](C)(C)C)OC(=O)CCCCCCCCCCCCCCC` [DPPC, 1,2-dipalmitoyl-sn-glycero-3-phosphatidylcholine], the “Platelets detected on the base part (fiber sheet part) as a result of washing” value in the series on guinea pig-derived PRP is “no platelets were detected”.
